Source: patent US20240382425A1 (BS BIOTECHNA SPOLKA Z OGRANICZONA ODPOWIEDZIALNOSCIA, priority 2021, published 2024)
≈ marks a conversion by molar mass, not a printed value.

Key:
[1] = Solubility of the deprotonated form of emetine in water; type: physicochemical
Protocol: The total volume of titrant utilised was 1.5 mL. The precipitate was centrifuged at 6000 RPM for 20 minutes and separated from the solution. […] The precipitate was dried in a vacuum dryer at 30° C., 100 mbar pressure for 5 h and used in the next synthetic steps.

[2] = tested on: MERS and SARS coronaviruses; conditions: lowest among over 290 drugs tested; cited from earlier work

**Q.** What does the source list for `CC[C@H]1CN2CCc3cc(OC)c(OC)cc3[C@@H]2C[C@@H]1C[C@H]1NCCc2cc(OC)c(OC)cc21` [emetine]?
**A.** solubility [1]: 1790 µg/mL (≈ 3.72 mM); EC50 [2]: < 20 nM
